Results on eight compounds are retold here after paper PMC4383706 (Cancer prevention research (Philadelphia, Pa.), 2015).

“Also recorded” adds a separate entry of the source. Read-outs that look alike come from different tables or passages of the source.

The subject of data set [1] is OH-BBN-induced urinary bladder cancers. The following applies: prior studies; at their HEDs (aspirin at doses in substantial excess of its HED), even when initiated after pre-invasive microscopic cancers; cited from earlier work.
The test system is the same in data set [2]. Description: OH-BBN-induced urinary bladder cancer model. In kind it is in vivo, Female Fischer-344 rats. The following applies: for number of rats with large urinary bladder cancers (>200 mg) at end of study: vehicle 24/25; for final weights of urinary bladder plus cancers vs vehicle control: end of study, Supplementary Fig. 1A/1B.
The conditions of data set [3]: NPX 40 mg/Kg BW gavage; for CI: serum.
Data set [4] concerns OH-BBN-induced urinary bladder cancers. The following applies: NPX limited treatment vs vehicle; Supplementary Fig. 3.
The conditions of data set [5]: humans; cited from earlier work.
For the next data set, the system named is urinary bladder cancer. The following applies: dogs; cited from earlier work.
Data set [6] relates to colon, bladder, skin tumors. The following applies: doses which correspond to human doses of 100 or 325 mg; cited from earlier work.
In a further data set the test system is colon adenomas. The following applies: cited from earlier work.
For data set [7] the following is noted: rats, omeprazole levels at the human equivalent dose; cited from earlier work.
For data set [8] the following is noted: multiple clinical studies; cited from earlier work.
The mark [9] stands for this setting: low to moderate doses of aspirin.

Take `COc1ccc2cc([C@H](C)C(=O)OCCCCO[N+](=O)[O-])ccc2c1` [NO-NPX]: the “blocking the development of large palpable cancers” value (shortened to “blocking the development”) in [1] is “effective”.

On to `COc1ccc2cc([C@H](C)C(=O)O)ccc2c1` [NPX, naproxen], for which the results for the “number of rats with large urinary bladder cancers (>200 mg) at end of study” value in data set [2] (1 week daily NPX (40 mg/kg BW/day)/1week vehicle (Group B)) and in [2] (3 week daily NPX (40 mg/kg BW/day)/3 week vehicle (Group C)) were 6/29 and 5/28, respectively. Besides, the “rats with palpable cancers, protocol C” value in data set [2] (3 weeks daily NPX/3 week vehicle, vehicle 96%, P<0.01) was determined as 19%. Moreover, the “inhibition of urinary bladder cancer formation” value in data set [2] (NPX by gavage daily, 1 week on/1 week off, or 3 weeks on/3 weeks off, P<.005) is given as 73–82%. Moreover, the “rats with palpable cancers, protocol A” value in data set [2] (NPX daily, beginning 2 weeks after last OH-BBN, vehicle 96%, P<0.01) is listed as 27%. Moreover, in data set [2] (NPX daily, P<0.01), the “reduction of urinary bladder cancer incidence” value was “approximately 75%”. Besides, the “final weights of urinary bladder plus cancers vs vehicle control” value in data set [2] is “final weights were higher in vehicle controls than in any of the three NPX treatment groups; also recorded: significantly different from control”. Also, in data set [1], the “blocking the development” value is given as “effective”. In addition, in [3], the “time for which serum levels greater than 100 uM were achieved following gavage” value is listed as “less than 6 hours”. In addition, the CI entry in data set [3] (14 Day (14 consecutive days)) is “.049 L/h/kg”; in data set [3] (24 hour (1 day) time point) it was “.058 L/h/kg”. In [4], the “levels of phosphorylated AKT (S473)” value was “slightly, but significantly, decrease”. The “phosphorylation of PI3K” value in data set [4] is recorded as “slightly, but significantly, decrease”. Further, in data set [5], the accumulation in urine entry is “preferentially accumulates in urine”.

For `CN1C(C(=O)Nc2ccccn2)=C(O)c2ccccc2S1(=O)=O` [Piroxicam], in the data set with urinary bladder cancer, the “therapeutic efficacy in urinary bladder cancer” value is given as “has shown therapeutic efficacy”.

Turning to `CC(=O)Oc1ccccc1C(=O)O` [aspirin], the “preventive efficacy in animal models” value in data set [6] is listed as “routinely ineffective”. The “blocking the development” value in data set [1] is recorded as “effective”. In the data set on colon adenomas (setting [9]), the “decrease in advanced adenomas” value was 35–40% and the “decrease in total adenomas” value is given as 20–25%.

Take `Cc1ccc(-c2cc(C(F)(F)F)nn2-c2ccc(S(N)(=O)=O)cc2)cc1` [celecoxib]: the “blocking the development” value in data set [1] is given as “effective”. Also, in the data set with colon adenomas (clinical trial), the “decrease in advanced adenomas” value is 55–65% and the “decrease in total colon adenomas” value is reported as approximately 45%.

As to `COc1ccc2[nH]c([S+]([O-])Cc3ncc(C)c(OC)c3C)nc2c1` (stereo not shown) [omeprazole], the “acidity of the stomach” value in data set [7] is “decreased the acidity of the stomach”. In data set [2], the “final weights of urinary bladder plus cancers vs vehicle control” value is “larger in size than tumors in rats given the vehicle alone”. Moreover, the “decrease of GI bleeding” value in data set [8] was 50–75%.

In the case of `CN(CCOc1ccc(CC2SC(=O)NC2=O)cc1)c1ccccn1` (stereo not shown) [rosiglitazone], the tumor latency entry in data set [2] (rosiglitazone 10 mg/kg BW/day by gavage, 10 rats) is listed as “greatly decreased tumor latency”.

In the case of `CC1=C(CC(=O)O)c2cc(F)ccc2/C1=C\c1ccc([S+](C)[O-])cc1` (stereo not shown) [sulindac], in data set [1], the “blocking the development” value is on record as “effective”.
